Measured values as given in patent US11752125B2, “Anti-neuroinflammatory and protective compounds in Achillea fragrantissima” (THE STATE OF ISRAEL MINISTRY OF AGRICULTURE & RURAL …, priority 2013, dated 2023).

System: microglial cells
Assay: Cellular antioxidant activity (ABAP peroxyl radicals) in microglial cells
Format: cell-based, rat
Conditions: ABAP 0.6 mM, dexamethasone at nanomolar concentrations
Experimental: Intracellular ROS production was detected using the non-fluorescent cell permeating compound, 2′7′-dichlorofluorescein diacetate (DCF-DA). DCF-DA is hydrolyzed by intracellular esterases and then oxidized by ROS to a fluorescent compound 2′-7′-DCF. Peroxyl radicals are generated by thermolysis of 2,2′-Azobis(amidinopropane) (ABAP) at physiological temperature. ABAP decomposes at approximately 1.36×10^−6s^−1 at 37° C., producing at most 1×10^12 radicals/mL/s. Microglial cells (130,000 cells/well) were plated in DMEM containing 2% FBS, 8.4 mM HEPES, 2 mM glutamine, 100 U/mL penicillin and 100 μg/mL streptomycin, onto 24 wells plates. In order to measure the ability of achillolide A to enter the cells and prevent the formation of DCF by ABAP-generated peroxyl radicals, cells were incubated for 1 h with achillolide A. Then cells were preloaded with DCF-DA for 30 min, washed twice with PBS, and ABAP (0.6 mM final concentration) was then added. The fluorescence, which indicates ROS levels, was measured in a plate reader with excitation at 485 nm and emission at 520 nm.
Cells were incubated for 1 h with different concentrations of achillolide A. Then, the cells were pre-loaded with DCF-DA for 30 min and washed. ABAP (0.6 mM) was added to the culture and ROS levels were measured at the indicated time points. […]

**Q.** Which “inhibition of the ABAP-induced increase in ROS fluorescence” value does the source give for `C=C1CCC2=C(CO)C(=O)O[C@H]2/C=C(\C)[C@H](OC(C)=O)CC1=O` [achillolide A] here?
**A.** 54%
